Source: patent publication US20240158851A1, “METHOD FOR […] ADDICTION, METHOD FOR SCREENING THERAPEUTIC AGENT FOR DRUG ADDICTION AND PHARMACEUTICAL COMPOSITION FOR PREVENTING OR TREATING DRUG ADDICTION” (KOREA INSTITUTE OF SCIENCE AND TECHNOLOGY, priority 2020, published 2024)

What was measured:
miR-137 [1] = experiment: Serum miR-137 (qPCR) in mild drug-addicted animal model with striatal SYNCRIP overexpression; conditions: mild drug addiction: methamphetamine 1.0 mg/kg i.p. once every other day for 2 weeks; lentivirus into striatum 4 weeks before
SYNCRIP [2] = experiment: SYNCRIP expression in brain striatum by qPCR; conditions: drug addiction animal model (MA) vs control group
miR-137 [3] = experiment: Serum miR-137 (qPCR) in drug-addicted (gradual ramp-up) animal model with striatal SYNCRIP overexpression; conditions: gradual ramp-up methamphetamine protocol, one week withdrawal; lentivirus into striatum 4 weeks before
[4] = system: egocentric spatial learning; experiment: Water cross maze test of egocentric spatial learning; conditions: probe test after 3 days learning; lentivirus injected into striatum after drug addiction
hyperactivity = experiment: Open field test of methamphetamine-induced hyperactivity; type: in vivo, mouse; conditions: open field 20 min after methamphetamine 4.0 mg/kg
Experimental: Before methamphetamine injection into each animal model, an open field test was conducted for 20 min to measure the activity of the animal model, which was used as a baseline.
4.0 mg/kg of methamphetamine was administered to the control group (Comparative group 1) and an open field test was again conducted for 20 min to measure the activity of the animal model.
4.0 mg/kg of methamphetamine was administered to the drug addiction animal model (MA) (Comparative group 2) and an open field test was again conducted for 20 min to measure the activity of the animal model.
Finally, the activity of each group was compared with the baseline and the activity increase was expressed as a percentage relative to the baseline.

SYNCRIP [5] = experiment: SYNCRIP expression in brain striatum by Western blotting; conditions: drug addiction animal model (MA) vs control group
miR-137 [6] = experiment: miR-137 expression (qPCR) in striatum and serum of methamphetamine drug addiction animal model; conditions: drug addiction animal model (MA) vs control group, gradual ramp-up protocol, one week withdrawal

## CN[C@@H](C)Cc1ccccc1 [methamphetamine]
miR-137 [1]
  expression level of serum miR-137: significantly low
SYNCRIP [2]
  expression level of SYNCRIP in brain striatum (qPCR): decreased but was significantly higher
miR-137 [3]
  expression level of miR-137 in serum: significantly reduced
[4]
  egocentric spatial learning (percent of mice): abnormally enhanced
hyperactivity
  hyperactivity (activity increase relative to baseline): significantly increased
SYNCRIP [5]
  expression level of SYNCRIP in brain striatum (Western blotting): decreased to a significantly lower level
miR-137 [6]; serum
  expression level of miR-137 in serum: significantly low
miR-137 [6]; striatum
  expression level of miR-137 in striatum: significantly high
